Measured values taken from patent publication US7297551B2, “Recombinant proteins and peptides for endotoxin biosensors, endotoxin removal, and anti-microbial and anti-endotoxin therapeutics” (priority 1998, dated 2007).

Key:
[1] = target: T1, SSCrFCES (LPS-binding domain of C. rotundicauda Factor C, rFCES amino acids 29-330, numbered as in SEQ ID NO: 4) (Carcinoscorpius rotundicauda, UniProt Q26422); test: ELISA-based lipid A binding assay
T1 construct: rFCES (amino acids 29-330); made in house; host or cells: Drosophila S2 cells
T1 sequence (Q26422 29-330): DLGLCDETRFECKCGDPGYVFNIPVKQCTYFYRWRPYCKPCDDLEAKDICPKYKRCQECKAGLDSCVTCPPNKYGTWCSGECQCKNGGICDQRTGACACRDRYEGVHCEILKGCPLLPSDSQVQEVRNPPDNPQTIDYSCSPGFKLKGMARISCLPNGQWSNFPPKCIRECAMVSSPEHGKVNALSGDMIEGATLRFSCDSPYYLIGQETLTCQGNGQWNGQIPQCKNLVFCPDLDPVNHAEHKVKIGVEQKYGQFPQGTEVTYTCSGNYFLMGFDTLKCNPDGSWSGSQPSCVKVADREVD
Method: A Polysorp™ 96-well plate (Nunc) was first coated with 100 μl per well of various concentrations of lipid A diluted in pyrogen-free PBS. The plate was sealed and allowed to incubate overnight at room temperature. The wells were aspirated and washed 6 times with 200 μl per wash solution (PBS containing 0.01% Tween-20 and 0.01% thimerosal). Blocking of unoccupied sites was achieved using wash solution containing 0.2% BSA for 1 hour at room temperature. Subsequently, blocking solution was removed and the wells washed as described above. Varying concentrations of SSCrFCES were allowed to interact with bound lipid A at room temperature for 2 hours.
Bound SSCrFCES was detected by sequential incubation with rabbit anti-SSCrFCES antibody (1:1000 dilution) and goat anti-rabbit antibody conjugated with HRP (1:2000 dilution) (Dako). Incubation with each antibody was for 1 h at 37° C. with washing between incubations as described above. In the final step, 100 μl of peroxide substrate ABTS (Boehringer Mannheim) was added. Using a microtiter plate reader, the absorbance of the samples was determined at 405 nm with reference wavelength at 490 nm. The values were correlated to the amount of LPS bound and SSCrFCES present. Quantitation of SSCrFCES was achieved from a standard curve derived by immobilizing known amount of purified SSCrFCES onto a Maxisorp plate.

BPI pep85-99 (15 mer) = conditions: de Haas et al., 1998; ligand cell empty; read-out: Equilibrium constant; cited from earlier work

Substance: lipid A
- Hill's coefficient [1]: 2.2
- molar ratio of bound SSCrFCES to immobilized lipid A at saturation [1]: 0.37
- stoichiometry, lipid A molecules per SSCrFCES ([1]; at saturation): ~3
- Kd (BPI pep85-99 (15 mer)): 1760 nM
